Where two headings read alike, the source gives them in different places.
How the values were obtained:
[1] = target: CFTR-mediated chloride transport (Homo sapiens, UniProt P13569); assay type: cell-based; conditions: enteroid cells incubated with test compound 18-24 hours, acute 10 μM forskolin and 300 nM Compound III; for Max. Activity: % of chloride transport with 3 μM Compound A, 3 μM Compound II and 300 nM acute Compound III triple combination control
How it was run: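 Membrane-potential fluorescence AUC over 15 min quantified CFTR chloride transport after acute forskolin (10 μM), IBMX (100 μM) and Compound III (300 nM) in chloride-free buffer. Human enteroid cells were pretreated with compound for 18–24 h; % Activity is relative to 3 μM Compound A + 3 μM Compound II + 300 nM Compound III.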

[2] = snar bond

CFTR-mediated chloride transport, sequence (P13569 whole entry, looked up): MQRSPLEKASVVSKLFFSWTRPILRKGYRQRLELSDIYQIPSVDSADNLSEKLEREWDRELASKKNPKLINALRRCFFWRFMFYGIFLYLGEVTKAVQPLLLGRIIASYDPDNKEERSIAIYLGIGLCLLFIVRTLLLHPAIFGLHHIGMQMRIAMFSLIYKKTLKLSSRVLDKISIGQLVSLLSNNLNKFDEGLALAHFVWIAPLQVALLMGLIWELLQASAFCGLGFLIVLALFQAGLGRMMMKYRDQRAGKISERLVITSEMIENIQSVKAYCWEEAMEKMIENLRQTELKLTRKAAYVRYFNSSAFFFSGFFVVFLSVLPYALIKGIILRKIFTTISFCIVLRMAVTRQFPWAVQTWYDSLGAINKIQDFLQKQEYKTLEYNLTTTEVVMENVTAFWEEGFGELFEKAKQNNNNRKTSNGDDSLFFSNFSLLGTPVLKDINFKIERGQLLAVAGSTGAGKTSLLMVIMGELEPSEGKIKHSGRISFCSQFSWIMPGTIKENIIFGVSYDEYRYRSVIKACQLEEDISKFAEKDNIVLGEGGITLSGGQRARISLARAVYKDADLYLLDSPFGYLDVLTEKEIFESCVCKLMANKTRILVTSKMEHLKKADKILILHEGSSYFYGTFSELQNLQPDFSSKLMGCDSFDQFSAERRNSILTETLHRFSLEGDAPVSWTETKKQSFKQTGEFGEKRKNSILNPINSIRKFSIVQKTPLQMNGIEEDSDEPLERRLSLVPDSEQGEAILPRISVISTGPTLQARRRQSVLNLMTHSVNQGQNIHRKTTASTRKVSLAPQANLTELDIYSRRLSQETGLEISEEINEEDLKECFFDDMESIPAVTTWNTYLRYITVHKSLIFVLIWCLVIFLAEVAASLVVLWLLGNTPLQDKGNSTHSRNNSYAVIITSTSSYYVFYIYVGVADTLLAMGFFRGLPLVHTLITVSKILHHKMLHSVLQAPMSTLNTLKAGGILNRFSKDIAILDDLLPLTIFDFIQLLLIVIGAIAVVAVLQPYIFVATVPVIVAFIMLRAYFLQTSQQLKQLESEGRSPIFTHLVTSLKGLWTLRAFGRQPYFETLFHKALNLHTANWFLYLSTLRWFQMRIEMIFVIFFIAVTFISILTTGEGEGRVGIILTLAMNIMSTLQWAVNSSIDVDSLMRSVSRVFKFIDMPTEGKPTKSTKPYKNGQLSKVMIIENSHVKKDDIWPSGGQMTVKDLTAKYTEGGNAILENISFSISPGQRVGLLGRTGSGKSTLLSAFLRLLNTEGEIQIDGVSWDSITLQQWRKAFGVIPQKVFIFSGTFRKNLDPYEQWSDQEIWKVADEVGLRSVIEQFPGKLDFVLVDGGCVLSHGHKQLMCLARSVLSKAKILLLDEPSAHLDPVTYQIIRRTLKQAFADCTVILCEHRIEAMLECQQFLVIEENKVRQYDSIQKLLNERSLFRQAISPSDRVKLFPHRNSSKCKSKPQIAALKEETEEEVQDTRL

SMILES | EC50 [1] [nM] | Max. Activity [1] | further results
CC1(C)CC2CCCCn3cc(cn3)S(=O)(=O)NC(=O)c3ccc(-n4ccc(OCCC5(C(F)(F)F)CC5)n4)nc3N1C2 (stereo not drawn) [Compound 122, 21,21-Dimethyl-4-(3-{2-[1-(trifluoromethyl)cyclopropyl]ethoxy}-1H-pyrazol-1-yl)-10λ^6-thia-1,3,9,13,14-pentaazatetracyclo[17.2.1.111,14.02,7]tricosa-2,4,6,11(23),12-pentaene-8,10,10-trione] | < 1000 | ++ (++ is 30-60%) | ring closure, isolated yield ([2]; from CC(C)(C)OC(=O)N1CC(CCCCn2cc(S(=O)(=O)NC(=O)c3ccc(-n4ccc(OCCC5(C(F)(F)F)CC5)n4)nc3Cl)cn2)CC1(C)C, 15-membered ring, K2CO3/CsF/3A MS, DMSO, 41.5 mM, 155.0 °C, 2 steps): 50%
Cc1cc2nn1CCCC1CN(c3nc(-n4ccc(OCCC5(C(F)(F)F)CC5)n4)ccc3C(=O)NS2(=O)=O)C(C)(C)C1 (stereo not drawn) [Compound 144, 13,20,20-Trimethyl-4-(3-{2-[1-(trifluoromethyl)cyclopropyl]ethoxy}-1H-pyrazol-1-yl)-10λ^6-thia-1,3,9,14,22-pentaazatetracyclo[16.2.1.111,14.02,7]docosa-2,4,6,11(22),12-pentaene-8,10,10-trione] | < 1000 | ++ (++ is 30-60%) | ring closure, isolated yield ([2]; from Cc1cc(S(=O)(=O)NC(=O)c2ccc(-n3ccc(OCCC4(C(F)(F)F)CC4)n3)nc2Cl)nn1CCCC1CN(C(=O)OC(C)(C)C)C(C)(C)C1, 14-membered ring, K2CO3/CsF/3A MS, DMSO, 44.1 mM, 155.0 °C, 2 steps): 38%
CC1(C)C[C@@H]2CCCNc3cccc(n3)S(=O)(=O)NC(=O)c3ccc(-n4ccc(OCCC(C5CC5)C5CC5)n4)nc3N1C2 [Compound 66, (14S)-8-[3-(3,3-dicyclopropylpropoxy)-1H-pyrazol-1-yl]-12,12-dimethyl-2λ^6-thia-3,9,11,18,23-pentaazatetracyclo[17.3.1.111,14.05,10]tetracosa-1(22),5,7,9,19(23),20-hexaene-2,2,4-trione] | < 1000 | +++ (+++ is >60%) | ring closure, isolated yield ([2]; from CC1(C)C[C@H](CCCNc2cccc(S(=O)(=O)NC(=O)c3ccc(-n4ccc(OCCC(C5CC5)C5CC5)n4)nc3Cl)n2)CN1, 15-membered ring, K2CO3/CsF, NMP, 75.7 mM, 150.0 °C, 20.0 h): 63%
CC1(C)C[C@@H]2CCCNc3cccc(n3)S(=O)(=O)NC(=O)c3ccc(-n4ccc(OCC(O)CC5(C(F)(F)F)CC5)n4)nc3N1C2 (stereo partly drawn) [Compound 259, (14S)-8-(3-{2-hydroxy-3-[1-(trifluoromethyl)cyclopropyl]propoxy}-1H-pyrazol-1-yl)-12,12-dimethyl-2λ^6-thia-3,9,11,18,23-pentaazatetracyclo[17.3.1.111,14.05,10]tetracosa-1(22),5(10),6,8,19(23),20-hexaene-2,2,4-trione] | < 1000 | +++ (+++ is >60%) | ring closure, isolated yield ([2]; from CC(C)(C)OC(=O)N1C[C@@H](CCCNc2cccc(S(=O)(=O)NC(=O)c3ccc(-n4ccc(OCC(O)CC5(C(F)(F)F)CC5)n4)nc3Cl)n2)CC1(C)C, 15-membered ring, HCl/dioxane/DCM, then K2CO3/3A MS, DMSO, 28.6 mM, 155.0 °C, 2 steps): 42%
CN1CCCC2CCC(C)(C)N2c2nc(-n3ccc(OCCC4(C(F)(F)F)CC4)n3)ccc2C(=O)NS(=O)(=O)c2cccc1n2 (racemic) [Compound 9, 12,12,19-trimethyl-8-(3-{2-[1-(trifluoromethyl)cyclopropyl]ethoxy}-1H-pyrazol-1-yl)-2λ^6-thia-3,9,11,19,24-pentaazatetracyclo[18.3.1.05,10.011,15]tetracosa-1(23),5,7,9,20(24),21-hexaene-2,2,4-trione] | < 1000 | ++ (++ is 30-60%) | ring closure, isolated yield ([2]; from CN(CCCC1CCC(C)(C)N1)c1cccc(S(=O)(=O)NC(=O)c2ccc(-n3ccc(OCCC4(C(F)(F)F)CC4)n3)nc2Cl)n1, 14-membered ring, K2CO3/CsF/3A MS, DMSO, 72.3 mM, 150.0 °C, 25.0 h): 78%
CC1(C)CC2CCCn3cc(cn3)S(=O)(=O)NC(=O)c3ccc(-n4ccc(OCCC5(C(F)(F)F)CC5)n4)nc3N1C2 (stereo not drawn) [Compound 110, 20,20-Dimethyl-4-(3-{2-[1-(trifluoromethyl)cyclopropyl]ethoxy}-1H-pyrazol-1-yl)-10λ^6-thia-1,3,9,13,14-pentaazatetracyclo[16.2.1.111,14.02,7]docosa-2,4,6,11(22),12-pentaene-8,10,10-trione] | < 1000 | ++ (++ is 30-60%) | ring closure, isolated yield ([2]; from CC(C)(C)OC(=O)N1CC(CCCn2cc(S(=O)(=O)NC(=O)c3ccc(-n4ccc(OCCC5(C(F)(F)F)CC5)n4)nc3Cl)cn2)CC1(C)C, 14-membered ring, HCl (Boc off), K2CO3/CsF/3A MS, DMSO, 44.8 mM, 155.0 °C, 2 steps): 36%
CC1(C)CC2CCNc3cccc(n3)S(=O)(=O)NC(=O)c3ccc(-n4ccc(OCCC5(C(F)(F)F)CC5)n4)nc3N1C2 (stereo not drawn) [Compound 20, 7,7-dimethyl-11-(3-{2-[1-(trifluoromethyl)cyclopropyl]ethoxy}-1H-pyrazol-1-yl)-17λ^6-thia-2,8,10,16,22-pentaazatetracyclo[16.3.1.15,8.09,14]tricosa-1(21),9,11,13,18(22),19-hexaene-15,17,17-trione] | < 1000 | +++ (+++ is >60%) | ring closure, isolated yield ([2]; from CC1(C)CC(CCNc2cccc(S(=O)(=O)NC(=O)c3ccc(-n4ccc(OCCC5(C(F)(F)F)CC5)n4)nc3Cl)n2)CN1, 14-membered ring, K2CO3/CsF/3A MS, DMSO, 54.4 mM, 155.0 °C): 43%
CC1(C)CC2CCCCOc3ccc(cc3)S(=O)(=O)NC(=O)c3ccc(-n4ccc(OCCC5(C(F)(F)F)CC5)n4)nc3N1C2 (racemic) [Compound 89, 12,12-dimethyl-8-(3-{2-[1-(trifluoromethyl)cyclopropyl]ethoxy}-1H-pyrazol-1-yl)-19-oxa-2λ^6-thia-3,9,11-triazatetracyclo[18.2.2.111,14.05,10]pentacosa-1(22),5,7,9,20,23-hexaene-2,2,4-trione] | < 1000 | ++ (++ is 30-60%) | ring closure, isolated yield ([2]; from CC1(C)CC(CCCCOc2ccc(S(=O)(=O)NC(=O)c3ccc(-n4ccc(OCCC5(C(F)(F)F)CC5)n4)nc3Cl)cc2)CN1, 17-membered ring, K2CO3/CsF/3A MS, DMSO, 36.5 mM, 165.0 °C, 18.0 h): 21%
CC1(C)C[C@@H]2CCCNc3cccc(n3)S(=O)(=O)NC(=O)c3ccc(-n4ccc(OCCC(O)C5(C(F)(F)F)CC5)n4)nc3N1C2 (stereo partly drawn) [Compound 295, (14S)-8-(3-{3-hydroxy-3-[1-(trifluoromethyl)cyclopropyl]propoxy}-1H-pyrazol-1-yl)-12,12-dimethyl-2λ^6-thia-3,9,11,18,23-pentaazatetracyclo[17.3.1.111,14.05,10]tetracosa-1(22),5,7,9,19(23),20-hexaene-2,2,4-trione] | < 1000 | ++ (++ is 30-60%) | ring closure, isolated yield ([2]; from CC(C)(C)OC(=O)N1C[C@@H](CCCNc2cccc(S(=O)(=O)NC(=O)c3ccc(-n4ccc(OCCC(O[Si](C)(C)C(C)(C)C)C5(C(F)(F)F)CC5)n4)nc3Cl)n2)CC1(C)C, 15-membered ring, K2CO3/CsF/3A MS, DMSO, 41.7 mM, 150.0 °C, 2 steps): 46%
CC1(C)CC2CCCCc3cccc(c3)S(=O)(=O)NC(=O)c3ccc(-n4ccc(OCCC5(C(F)(F)F)CC5)n4)nc3N1C2 (stereo not drawn) [Compound 53, 12,12-dimethyl-8-(3-{2-[1-(trifluoromethyl)cyclopropyl]ethoxy}-1H-pyrazol-1-yl)-2λ^6-thia-3,9,11-triazatetracyclo[17.3.1.111,14.05,10]tetracosa-1(22),5,7,9,19(23),20-hexaene-2,2,4-trione] | < 1000 | +++ (+++ is >60%) | ring closure, isolated yield ([2]; from CC1(C)CC(CCCCc2cccc(S(=O)(=O)NC(=O)c3ccc(-n4ccc(OCCC5(C(F)(F)F)CC5)n4)nc3Cl)c2)CN1, 15-membered ring, K2CO3/CsF/3A MS, DMSO, 32.0 mM, 165.0 °C, 6.0 h): 51%
CN1CCCC2CN(c3nc(-n4ccc(OCCC5(C(F)(F)F)CC5)n4)ccc3C(=O)NS(=O)(=O)c3cccc1n3)C(C)(C)C2 (stereo not drawn) [Compound 133, 12,12,18-trimethyl-8-(3-{2-[1-(trifluoromethyl)cyclopropyl]ethoxy}-1H-pyrazol-1-yl)-2λ^6-thia-3,9,11,18,23-pentaazatetracyclo[17.3.1.111,14.05,10]tetracosa-1(23),5(10),6,8,19,21-hexaene-2,2,4-trione] | < 1000 | +++ (+++ is >60%) | ring closure, isolated yield ([2]; from CN(CCCC1CNC(C)(C)C1)c1cccc(S(=O)(=O)NC(=O)c2ccc(-n3ccc(OCCC4(C(F)(F)F)CC4)n3)nc2Cl)n1, 15-membered ring, K2CO3/CsF/3A MS, DMSO, 30.3 mM, 165.0 °C, 4.0 h): 42%
CC1(C)C[C@H]2CCCNc3cccc(n3)S(=O)(=O)NC(=O)c3ccc(-n4ccc(OCCC5C6(CC6)C56CC6)n4)nc3N1C2 [Compound 194, (14R)-8-[3-(2-{Dispiro[2.0.2.1]heptan-7-yl}ethoxy)-1H-pyrazol-1-yl]-12,12-dimethyl-2λ^6-thia-3,9,11,18,23-pentaazatetracyclo[17.3.1.111,14.05,10]tetracosa-1(22),5,7,9,19(23),20-hexaene-2,2,4-trione] | < 1000 | ++ (++ is 30-60%) | ring closure, isolated yield ([2]; from CC1(C)C[C@@H](CCCNc2cccc(S(=O)(=O)NC(=O)c3ccc(-n4ccc(OCCC5C6(CC6)C56CC6)n4)nc3Cl)n2)CN1, 15-membered ring, K2CO3, NMP, 72.4 mM, 135.0 °C, 22.0 h): 57%

Source: patent publication US11866450B2, “Modulators of Cystic Fibrosis Transmembrane Conductance regulator, pharmaceutical compositions, methods of treatment, and process for making the modulators” (priority 2018, dated 2024)
